The test system of this experiment is PAICS. Put plainly: Animal experiments: inhibition of SAICAR accumulation. Type of experiment: in vivo. Conditions: "can reach". An excerpt: By inhibiting the activity of PAICS, the accumulation of toxic compound […] is reduced, which proves that the compound disulfiram can effectively treat rare disease ADSL deficiency.

With `CCN(CC)C(=S)SSC(=S)N(CC)CC` [disulfiram, Disulfiram], the “inhibition ratio against SAICAR accumulation” value was 87.11%.

The values are drawn from patent US20210008012A1, “NOVEL APPLICATIONS OF DISULFIRAM AND DERIVATIVES THEREOF” (GENEHEAL BIOTECHNOLOGY CO., LTD., priority 2017, published 2021).
